Assays:
[1] = system: human peripheral white blood cells (pWBC); experiment: Cytokine secretion from PHA-cultured human peripheral white blood cells treated with KTPAF50 (ELISA); type: cell-based; conditions: pWBC in PHA containing medium, treated for 3 days
Description: In order to determine the potential effect of KTPAF50 on various diseases, KTPAF50 was incubated with human peripheral white blood cells (pWBC), and the amounts of a panel of cytokines were measured.
Total human white blood cells were cultured in PHA containing medium (Biological Industries INC—catalogue number—01-201-1) (2 million cells/well in 2 ml medium). The control cells were not treated.
At day 3 medium was harvested and subjected to ELISA analysis, using e-Bioscience kits for human IL-17 (catalogue number: 88-7176), human INF-γ (catalogue number: 88-7316) and human TNF-α (catalogue number: 88-7346. The results are summarized in FIGS. 1, 2 and 3.

[2] = system: U937 acute myeloid leukemia cells; experiment: Viable cell detection with Resazurin, U937 cells; type: cell-based; conditions: incubated one day, FIG. 4
Description: (§1) U937 acute myeloid leukemia cells and PC3 prostate cancer cells were each grown in 10% FCS+RPMI medium and quadruplicates were inoculated into a 96 well plate, 20,000 cells/well.
(§2) KTPAF50 was incubated with the cells for one day, and viable cells were detected using Resazurin (R&D System) and a spectrophotometer.
In order to determine whether the entire KTPAF50 peptide is required for activity, the experiment described in Example III above, using U937 cells, was repeated with the complete KTPAF50 peptide and fragments thereof.

[3] = system: U937 cells; experiment: U937 tumor growth in athymic nude mice; type: in vivo; conditions: nude mice inoculated s.c. with 15×10^6 U937 cells, 25 ug/mouse injected from day 9, versus saline control; FIG. 6
Description: 14 athymic nude female 8-9 week-old mice were purchased from Harlan Biotech, Israel. The mice were inoculated s.c. with 15×10^6 U937 cells. Tumors began to grow, and at day 9 the mice were divided into 2 groups: • A control group which was injected with saline. • A treated group which was injected with KTPAF50 (25 ug/mouse)
At day 20, 4 mice from the control group were sacrificed due to ethical reasons because they had huge tumors.

[4] = system: PC3 prostate cancer cells; experiment: Viable cell detection with Resazurin, PC3 cells; type: cell-based; conditions: incubated one day, FIG. 4
Description: as §1, §2

Substance: KTPAF50: KTPAF50 peptide devoid of the signal sequence, 50 amino acids: LRRREQAERGSRRCAIAGEERAMLSPSPLPETPFSPEKGAAFSPIYPRRK; chemically synthesized by Anaspec (listed as Homo sapiens)
- secretion of IL-17 ([1]; FIG. 1): stimulated the pWBC to secrete all three cytokines measured
- secretion of INF-γ ([1]; FIG. 2): stimulated the pWBC to secrete all three cytokines measured
- secretion of TNF-α ([1]; FIG. 3): stimulated the pWBC to secrete all three cytokines measured
- viable cells (normalized to the control amount) [2]: significant decrease in viable cells
- U937 tumor volume / tumor growth [3]: totally prevented tumor growth
- viable cells (normalized to the control amount) [4]: significant decrease in viable cells
